Here are results for five compounds from PMC5077133, “Towards Development of Small Molecule Lipid II Inhibitors as Novel Antibiotics” (PLoS ONE, 2016).

Molecules are shown by their SMILES.

One data set relates to HeLa cells. In words: Cytotoxicity against mammalian cells (MTS assay). Type of data set: cell-based. In short, it runs like this: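 HeLa cells exposed 72 h in RPMI1640 to compounds at 64 to 0.125 μg/ml, in triplicate. Viability measured as mitochondrial activity by MTS, and CC50 taken against a standard curve of serially diluted untreated cells.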
(Formazan colour is commonly taken as a measure of viable cells.)

The test system of another data set is A. baumanii ATCC 19606. In words: Antibacterial activity (MIC, broth dilution). Format: cell-based, Acinetobacter baumanii. To be noted: CLSI, in µg/mL. In short, it runs like this:
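MIC determined by broth dilution following CLSI standards, using A. baumanii ATCC 19606.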
Background: In broth dilution the organism is exposed to a series of concentrations in liquid medium.

A further data set relates to E. faecium EF1509 (VRE). The experiment in a line: Antibacterial activity (MIC, broth dilution). The following applies: CLSI, in µg/mL. Type of data set: cell-based. As for the experimental part:
(§1) Determination of the Minimal Inhibitory Concentrations (MIC) by dilution was carried out by broth dilution according to CLSI standards.

In a further data set the test system is E. aerogenes ATCC 13048. In words: Antibacterial activity (MIC, broth dilution). Format: cell-based. To be noted: CLSI. Here is the method: as §1
A further data set relates to P. aeruginosa PA01. In words: Antibacterial activity (MIC, broth dilution). To be noted: CLSI. Format: cell-based. Here is the method: as §1
The next data set deals with P. aeruginosa X13273. The experiment in a line: Antibacterial activity (MIC, broth dilution). Type of data set: cell-based. The following applies: CLSI, in µg/mL. Here is the method:
as §1

The next data set concerns S. aureus MRSA 1094. In words: Antibacterial activity (MIC, broth dilution). Type of data set: cell-based. The following applies: CLSI. As for the experimental part: as §1
Data set [1] concerns S. aureus HFH-30123 (MRSA). In words: Antibacterial activity (MIC, broth dilution). Type of data set: cell-based. The following applies: CLSI. Here is the method:
as §1

The subject of the next data set is P. aeruginosa ATCC 27853. The experiment in a line: Antibacterial activity (MIC, broth dilution). The following applies: CLSI. Type of data set: cell-based. Here is the method: as §1
In data set [2] the test system is K. pneumoniae NR-15411 (KPC). The experiment in a line: Antibacterial activity (MIC, broth dilution). To be noted: CLSI. Format: cell-based. As for the experimental part: as §1
For data set [3], the system named is K. pneumoniae NR-15410 (KPC). The experiment in a line: Antibacterial activity (MIC, broth dilution). The following applies: CLSI. Type of data set: cell-based. As for the experimental part:
as §1

Another data set relates to E. faecium F118 (VRE). The experiment in a line: Antibacterial activity (MIC, broth dilution). The following applies: CLSI, in µg/mL. Type of data set: cell-based. As for the experimental part:
as §1

The next data set concerns E. cloacae ATCC 13047. In words: Antibacterial activity (MIC, broth dilution). Format: cell-based. The following applies: CLSI. As for the experimental part: as §1
The nature of data set [4]: Lipid II binding by Surface Plasmon Resonance. The following applies: SPR, immobilized 3-Lipid II, 25°C. In short, it runs like this: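 Farnesyl (3-isoprene) Lipid II amine-coupled (50 RUs) on CM5 chips. Compounds injected at 10 μM, 30 μl/min, 25°C, in 10 mM HEPES, 150 mM NaCl, 0.05% P20, pH 7.4 (± 3 mM EDTA), 10% DMSO. Signals corrected against control flow-cell; kinetics fitted from binding isotherms.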

Regarding `Cc1ccc(-c2cc(/C=C/c3ccc(N(C)C)cc3)[o+]c(-c3ccc(C)c(C)c3)c2)cc1C.F[B-](F)(F)F` [6jc-59-1], the “CC50% (72 h HeLa cells)” value in the data set with HeLa cells is “<.78125”. For the same compound, in the data set with A. baumanii ATCC 19606, the “Antibacterial activity (MIC) A. baumanii ATCC 19606” value is recorded as “>=64”. The “Antibacterial activity (MIC) E. faecium EF1509 (VRE)” value in the data set on E. faecium EF1509 (VRE) is given as 4. Besides, in the data set with E. aerogenes ATCC 13048, the Antibacterial activity (MIC) E. aerogenes ATCC 13048 was ≥ 64 µg/mL. In the data set on P. aeruginosa PA01, the Antibacterial activity (MIC) P. aeruginosa PA01 is ≥ 64 µg/mL. Also, the “Antibacterial activity (MIC) P. aeruginosa X13273” value with P. aeruginosa X13273 is “>=64”. In the data set on S. aureus MRSA 1094, this compound registered an Antibacterial activity (MIC) S. aureus MRSA 1094 of 2 µg/mL. This compound also showed an Antibacterial activity (MIC) S. aureus HFH-30123 (MRSA) in data set [1] of 2 µg/mL. Moreover, in the data set with P. aeruginosa ATCC 27853, the Antibacterial activity (MIC) P. aeruginosa ATCC 27853 was ≥ 64 µg/mL. The Antibacterial activity (MIC) K. pneumoniae NR-15411 (KPC) in data set [2] was ≥ 64 µg/mL. Moreover, in [3], the Antibacterial activity (MIC) K. pneumoniae NR-15410 (KPC) is ≥ 64 µg/mL. In addition, the “Antibacterial activity (MIC) E. faecium F118 (VRE)” value in the data set with E. faecium F118 (VRE) turned out to be 4. In the data set with E. cloacae ATCC 13047, the Antibacterial activity (MIC) E. cloacae ATCC 13047 is ≥ 64 µg/mL. Binding in [4] was put at a Kd of 1.9 ± 0.3 µM.

With `Cc1ccc(-c2cc(/C=C/c3c[nH]c4ccccc34)[o+]c(-c3ccc(C)c(C)c3)c2)cc1C.F[B-](F)(F)F` [6jc-59-3], the “CC50% (72 h HeLa cells)” value in the data set with HeLa cells is reported as 1.35. For the same compound, in the data set with A. baumanii ATCC 19606, the “Antibacterial activity (MIC) A. baumanii ATCC 19606” value was “>=64”. For the same compound, in the data set with E. faecium EF1509 (VRE), the “Antibacterial activity (MIC) E. faecium EF1509 (VRE)” value was found to be 5.657. The Antibacterial activity (MIC) E. aerogenes ATCC 13048 in the data set with E. aerogenes ATCC 13048 is ≥ 64 µg/mL. Further, the Antibacterial activity (MIC) P. aeruginosa PA01 in the data set with P. aeruginosa PA01 was ≥ 64 µg/mL. In addition, the “Antibacterial activity (MIC) P. aeruginosa X13273” value with P. aeruginosa X13273 is recorded as “>=64”. This compound had an Antibacterial activity (MIC) S. aureus MRSA 1094 in the data set on S. aureus MRSA 1094 of 4 µg/mL. In [1], the Antibacterial activity (MIC) S. aureus HFH-30123 (MRSA) was found to be 4 µg/mL. Also, the Antibacterial activity (MIC) P. aeruginosa ATCC 27853 with P. aeruginosa ATCC 27853 is ≥ 64 µg/mL. Moreover, the Antibacterial activity (MIC) K. pneumoniae NR-15411 (KPC) in data set [2] is ≥ 64 µg/mL. The Antibacterial activity (MIC) K. pneumoniae NR-15410 (KPC) in data set [3] was ≥ 64 µg/mL. The “Antibacterial activity (MIC) E. faecium F118 (VRE)” value with E. faecium F118 (VRE) was 8. Also, in the data set with E. cloacae ATCC 13047, the Antibacterial activity (MIC) E. cloacae ATCC 13047 is ≥ 64 µg/mL. Besides, binding in data set [4] was put at a Kd of 27.9 ± 3 µM.

In the case of `CN(C)c1ccc(/C=C/c2cc(-c3ccc(C(C)(C)C)cc3)cc(-c3ccc(C(C)(C)C)cc3)[o+]2)cc1.F[B-](F)(F)F` [6jc-60-1], the “CC50% (72 h HeLa cells)” value in the data set with HeLa cells was “<.78125”. Also, the “Antibacterial activity (MIC) A. baumanii ATCC 19606” value in the data set with A. baumanii ATCC 19606 is on record as “>=64”. The “Antibacterial activity (MIC) E. faecium EF1509 (VRE)” value with E. faecium EF1509 (VRE) stood at 8. Also, the Antibacterial activity (MIC) E. aerogenes ATCC 13048 in the data set on E. aerogenes ATCC 13048 is ≥ 64 µg/mL. Further, the Antibacterial activity (MIC) P. aeruginosa PA01 in the data set on P. aeruginosa PA01 was ≥ 64 µg/mL. Moreover, the “Antibacterial activity (MIC) P. aeruginosa X13273” value in the data set with P. aeruginosa X13273 is given as “>=64”. Moreover, the Antibacterial activity (MIC) S. aureus MRSA 1094 in the data set on S. aureus MRSA 1094 was 8 µg/mL. This compound also registered an Antibacterial activity (MIC) S. aureus HFH-30123 (MRSA) in data set [1] of 8 µg/mL. Further, in the data set on P. aeruginosa ATCC 27853, the Antibacterial activity (MIC) P. aeruginosa ATCC 27853 was ≥ 64 µg/mL. For the same compound, the Antibacterial activity (MIC) K. pneumoniae NR-15411 (KPC) in data set [2] was ≥ 64 µg/mL. Moreover, the Antibacterial activity (MIC) K. pneumoniae NR-15410 (KPC) in [3] was ≥ 64 µg/mL. Further, the “Antibacterial activity (MIC) E. faecium F118 (VRE)” value in the data set on E. faecium F118 (VRE) was 8. For the same compound, in the data set with E. cloacae ATCC 13047, the Antibacterial activity (MIC) E. cloacae ATCC 13047 was ≥ 64 µg/mL. For the same compound, binding in data set [4] was put at a Kd of 37.9 ± 4 µM.

Take `CCc1ccc(-c2cc(/C=C/c3cc4c5c(c3)CCCN5CCC4)[o+]c(-c3ccc(CC)cc3)c2)cc1.F[B-](F)(F)F` [6jc-69-1]: in the data set on HeLa cells, the “CC50% (72 h HeLa cells)” value is recorded as “<.78125”. The “Antibacterial activity (MIC) A. baumanii ATCC 19606” value with A. baumanii ATCC 19606 is recorded as 32. In the data set with E. faecium EF1509 (VRE), the “Antibacterial activity (MIC) E. faecium EF1509 (VRE)” value worked out at 2. Also, the Antibacterial activity (MIC) E. aerogenes ATCC 13048 in the data set with E. aerogenes ATCC 13048 is ≥ 64 µg/mL. Also, the Antibacterial activity (MIC) P. aeruginosa PA01 in the data set with P. aeruginosa PA01 was ≥ 64 µg/mL. In the data set on P. aeruginosa X13273, the “Antibacterial activity (MIC) P. aeruginosa X13273” value is listed as “>=64”. The compound further gave an Antibacterial activity (MIC) S. aureus MRSA 1094 in the data set with S. aureus MRSA 1094 of 2 µg/mL. In data set [1], this compound had an Antibacterial activity (MIC) S. aureus HFH-30123 (MRSA) of 2 µg/mL. In the data set on P. aeruginosa ATCC 27853, the Antibacterial activity (MIC) P. aeruginosa ATCC 27853 was ≥ 64 µg/mL. The Antibacterial activity (MIC) K. pneumoniae NR-15411 (KPC) in [2] was ≥ 64 µg/mL. Further, in [3], the Antibacterial activity (MIC) K. pneumoniae NR-15410 (KPC) is ≥ 64 µg/mL. For the same compound, the “Antibacterial activity (MIC) E. faecium F118 (VRE)” value in the data set with E. faecium F118 (VRE) is 2. Further, in the data set on E. cloacae ATCC 13047, the Antibacterial activity (MIC) E. cloacae ATCC 13047 was ≥ 64 µg/mL. Binding in [4] was characterised by a dissociation constant (Kd) of 16.1 ± 0.3 µM.

Consider `Cc1ccc(-c2cc(/C=C/c3cc4c5c(c3)CCCN5CCC4)[o+]c(-c3ccc(C)c(C)c3)c2)cc1C.F[B-](F)(F)F` [6jc-69-3], for which the “CC50% (72 h HeLa cells)” value with HeLa cells is on record as “<.78125”. The “Antibacterial activity (MIC) A. baumanii ATCC 19606” value in the data set with A. baumanii ATCC 19606 is on record as “>=64”. The “Antibacterial activity (MIC) E. faecium EF1509 (VRE)” value with E. faecium EF1509 (VRE) is 2.83. Besides, the Antibacterial activity (MIC) E. aerogenes ATCC 13048 in the data set on E. aerogenes ATCC 13048 is ≥ 64 µg/mL. Also, the Antibacterial activity (MIC) P. aeruginosa PA01 in the data set on P. aeruginosa PA01 is ≥ 64 µg/mL. In the data set on P. aeruginosa X13273, the “Antibacterial activity (MIC) P. aeruginosa X13273” value was “>=64”. Moreover, the Antibacterial activity (MIC) S. aureus MRSA 1094 in the data set with S. aureus MRSA 1094 came to 4 µg/mL. Also, the Antibacterial activity (MIC) S. aureus HFH-30123 (MRSA) in [1] was found to be 4 µg/mL. In addition, the Antibacterial activity (MIC) P. aeruginosa ATCC 27853 with P. aeruginosa ATCC 27853 was ≥ 64 µg/mL. In data set [2], the Antibacterial activity (MIC) K. pneumoniae NR-15411 (KPC) is ≥ 64 µg/mL. Also, in [3], the Antibacterial activity (MIC) K. pneumoniae NR-15410 (KPC) was ≥ 64 µg/mL. In addition, the “Antibacterial activity (MIC) E. faecium F118 (VRE)” value in the data set on E. faecium F118 (VRE) was determined as 4. For the same compound, the Antibacterial activity (MIC) E. cloacae ATCC 13047 with E. cloacae ATCC 13047 was ≥ 64 µg/mL. Further, in [4], binding was characterised by a dissociation constant (Kd) of 0.6 ± 0.1 µM.
